We go through seven molecules from patent publication US20030073695A1, “Methods of use of gemifloxacin compounds against fluoroquinolone resistant Streptococcus pneumoniae bacteria” (priority 2000, published 2003).

The subject of assay [1] is CFX and TFX susceptible and resistant S. pneumoniae. The assay is described as follows: Postantibiotic effect (PAE), 2 hour exposure, viable colony counting. The format is cell-based, Streptococcus pneumoniae. As to conditions: for mean PAE at 4× MIC: exposure 2 hours at 4× MIC; for mean PAE at 10× MIC: exposure 2 hours at 10× MIC. Here is the method: This invention was based, in part, on analyses evaluating the comparative activity of gemifloxacin against various strains of S. pneumoniae.
MICs were determined using a microbroth dilution technique described by the NCCLS. Topisomeriase IV (parC) and DNA gyrase (gyrA) mutations were confirmed by sequencing the QRDR region of each gene. […] Antibiotics were removed using dilution into sterile media and the PAE assessed using a viable colony counting technique.

Assay [2] relates to S. pneumoniae with reduced susceptibility to CIP. The assay is described as follows: MIC by NCCLS microbroth dilution, 80 clinical isolates with CIP MIC ≧2 μg/ml. The format is cell-based. The following applies: Streptococcus pneumoniae, 80 isolates with CIP MICs ≧2 μg/ml. Here is the method:
MICs to penicillin (herein “PEN”), CIP, levofloxacin (herein “LEV”), TFX, moxifloxacin (herein “MOX”), grepafloxacin (herein “GRE”), gatifloxacin (herein “GAT”), sparfloxacin (herein “SPA”), and gemifloxacin (herein “GFX”) were determined using a microbroth dilution technique described by the NCCLS. Topoisomerase IV (parC) and DNA gyrase (gyrA) mutations were confirmed by sequencing the QRDR region of each gene. Serotyping and PFGE were performed on all isolates. […] Breakpoints have not been established for all fluoroquines, thus percentage resistance was not calculated.
Background: Dilution methods test growth across graded concentrations, often in twofold steps.

The mark [3] stands for this setting: GFX, isolates not restricted to susceptible.
The mark [4] stands for this setting: isolates susceptible to the tested drug.

Converted amounts (≈) assume the structure as drawn.

For orientation: MIC50 means an inhibitory concentration at the 50% level, which refers to growth in some studies and to a panel of isolates in others. Read a low MIC50 as greater potency. What is called MIC is the lowest concentration found to suppress growth. Low readings indicate greater potency, high ones weaker potency.

Take `CO/N=C1\CN(c2nc3c(cc2F)c(=O)c(C(=O)O)cn3C2CC2)CC1CN` (racemic) [GFX, (R,S)-7-(3-aminomethyl-4-methoxyiminopyrrolidin-1-yl)-1-cyclopropyl-6-fluoro-4-oxo-1,4-dihydro-1,8-naphthyridine-3-carboxylic acid]: in assay [1] (setting [3]), the “mean PAE at 4× MIC” value stood at 2.7 h and the “mean PAE at 10× MIC” value came to 3.8 h. Besides, the “difference in duration of PAE between CFX or TFX susceptible and resistant strains” value in assay [1] (p<0.05) is “no significant difference”. In assay [2] (MIC50 of Table 1), this molecule yielded an MIC50 of 0.06 µg/mL (≈ 0.154 µM). This molecule also came in with an MIC50 in assay [2] (Table 1 MIC50) of 0.25 µg/mL (≈ 0.642 µM). Moreover, the MIC in assay [2] was in the range of 0.03 to 0.5 µg/mL (≈ 0.077 to 1.28 µM).

With `COc1c(N2CCNC(C)C2)c(F)cc2c(=O)c(C(=O)O)cn(C3CC3)c12` (centres unmarked) [GAT, gatifloxacin], the MIC50 stood at 0.5 µg/mL (≈ 1.33 µM) in assay [2] (MIC50 of Table 1) and 4 µg/mL (≈ 10.7 µM) in assay [2] (Table 1 MIC50). The minimal inhibitory concentration (MIC) in assay [2] fell in the range of 0.25 to 8 µg/mL (≈ 0.666 to 21.3 µM).

Take `Cc1c(F)c(N2CCNC(C)C2)cc2c1c(=O)c(C(=O)O)cn2C1CC1` (centres unmarked) [GRE, grepafloxacin]: the MIC50 in assay [2] (MIC50 of Table 1) was 0.5 µg/mL (≈ 1.39 µM); in assay [2] (Table 1 MIC50), 8 µg/mL (≈ 22.3 µM). For the same molecule, the minimum inhibitory concentration (MIC) in assay [2] lay in the range of 0.12 to 8 µg/mL (≈ 0.334 to 22.3 µM).

For the molecule `C[C@H]1COc2c(N3CCN(C)CC3)c(F)cc3c(=O)c(C(=O)O)cn1c23` [LEV, levofloxacin], the MIC50 in assay [2] (MIC50 of Table 1) is 2 µg/mL (≈ 5.53 µM); in assay [2] (Table 1 MIC50), 16 µg/mL (≈ 44.3 µM). In assay [2], this molecule had an MIC of 1 to 32 µg/mL (≈ 2.77 to 88.6 µM).

Turning to `COc1c(N2C[C@@H]3CCCN[C@@H]3C2)c(F)cc2c(=O)c(C(=O)O)cn(C3CC3)c12` [MOX, moxifloxacin], the MIC50 in assay [2] (MIC50 of Table 1) came to 0.25 µg/mL (≈ 0.623 µM); in assay [2] (Table 1 MIC50), 2 µg/mL (≈ 4.98 µM). This molecule also displayed an MIC in assay [2] of 0.12 to 4 µg/mL (≈ 0.299 to 9.96 µM).

As to `C[C@@H]1CN(c2c(F)c(N)c3c(=O)c(C(=O)O)cn(C4CC4)c3c2F)C[C@H](C)N1` [SPA, sparfloxacin], the figures for the MIC50 in assay [2] (MIC50 of Table 1) and in assay [2] (Table 1 MIC50) were 0.5 µg/mL (≈ 1.27 µM) and 16 µg/mL (≈ 40.8 µM), respectively. The same molecule yielded an MIC in assay [2] of 0.25 to 32 µg/mL (≈ 0.637 to 81.5 µM).

For `N[C@@H]1[C@H]2CN(c3nc4c(cc3F)c(=O)c(C(=O)O)cn4-c3ccc(F)cc3F)C[C@@H]12` [TFX, trovafloxacin], in assay [1] (setting [4]), the “mean PAE at 4× MIC” value turned out to be 2.1 h and the “mean PAE at 10× MIC” value was 3.2 h. In addition, in assay [2] (MIC50 of Table 1), the MIC50 came to 0.5 µg/mL (≈ 1.2 µM). Also, the MIC50 in assay [2] (Table 1 MIC50) turned out to be 4 µg/mL (≈ 9.61 µM). For the same molecule, the MIC in assay [2] lay within 0.06 to 8 µg/mL (≈ 0.144 to 19.2 µM).
